Entries after “also recorded” stand apart in the source; their conditions may differ.
Assays:
A2780cis cells [1] = assay: Apoptosis, Annexin V/7-AAD staining, flow cytometer; format: cell-based, human; details: TTFields applied with drug
Experimental: (§1) Apoptosis was also examined. Treated cells were double-stained with FITC-conjugated annexin V (AnnV) and 7-aminoactinomycin D (7AAD), and data acquisition was performed with a flow cytometer.
Treated cells were double-stained with FITC-conjugated annexin V (AnnV) and 7-aminoactinomycin D (7AAD), and data acquisition was performed with a flow cytometer.
(§2) Treated cells were stained with FITC-conjugated Annexin V (AnnV) and 7-Aminoactinomycin D (7-AAD) using a commercial kit (BioLegend, San Diego, CA, USA), according to the manufacturer's instruction. Data acquisition and analysis were done on the Cytek Northern Lights flow cytometer

[2] = test system: orthotopic ID8-fLuc (HRP) ovarian cancer tumors; assay: Tumor load by bioluminescent imaging in ovarian cancer bearing mice; format: in vivo
Experimental: (§3) Murine experiments were approved by the KU Leuven ethical committee (P082/2021). NIH guidelines for the Care and Use of Laboratory Animals were followed along with the 2010/62/EU directive and the ARRIVE (Animal Research: Reporting of In Vivo Research: Reporting of In Vivo Experiments) guidelines. Syngeneic ID8-fluc cells were harvested using 0.05% Trypsin-EDTA and inoculated (5×10^6 cells in 100 μL DPBS) intraperitoneally in female C57BL/6 mice (six- to eight-week-old, obtained from Envigo (Horst, The Netherlands)), leading to the development of a stage III-IV ovarian cancer model.
Seven days post inoculation, treatment was initiated. Mice were divided into four groups receiving either, sham-heat and vehicle (n=8), sham-heat and olaparib (n=8), TTFields and vehicle (n=7) or TTFields and olaparib (n=11). TTFields treatment (200 kHz) was administered continuously using the in vivo system (Novocure, Israel) by applying electrode arrays to the shaven abdomen of the mice as previously described. […]
Tumor load was observed through bioluminescent imaging analysis before (day 5) and after (day 35) treatment administration. […] Ten minutes post injection, photon flux was measured using the IVIS-spectrum preclinical In Vivo Imaging System (Perkin-Elmer, USA). Normalized photon flux was calculated by subtracting the photon flux before treatment from the paired photon flux after treatment per mouse.

A2780 cells = assay: Apoptosis, Annexin V/7-AAD staining, flow cytometer; format: cell-based, human; details: TTFields applied with drug
Experimental: Apoptosis: Treated cells were double-stained with FITC-conjugated annexin V (AnnV) and 7-aminoactinomycin D (7AAD), and data acquisition was performed with a flow cytometer.
as §1, §2

A2780cis cells [3] = assay: Cell count and overall effect (cell count x colony formation) after 72 h drug with or without TTFields; format: cell-based, human
Experimental: TTFields were applied to the cells for 72 h in the absence or presence of various concentrations of carboplatin. Synergy was defined when the observed value was lower than that predicted for an additive effect (presented by the red dotted line-calculated by multiplying the observed effects for TTFields alone with that for cisplatin alone).
The Cytotoxic effect was also determined. Treated cells were counted using a flow cytometer, and cytotoxic effect was calculated relative to control cells.
Treated cells were harvested, re-plated, and grown for an additional 7-14 days. Colonies were stained (0.5% crystal violet solution), counted, and clonogenic effect was calculated relative to control. The overall effect was calculated by multiplying the cytotoxic and clonogenic effects.
TTFields application was studied. Ovarian carcinoma cells A2780cis (cisplatin resistant cells) were treated for 72 h with TTFields at an intensity of 1 V/cm RMS and a frequency of 200 kHz using the inovitro system (See FIG. 11).
TTFields were applied to the cells for 72 h in the absence or presence of various concentrations of PARPi Olaparib and Niraparib. Synergy was defined when the observed value was lower than that predicted for an additive effect (presented by the red dotted line-calculated by multiplying the observed effects for TTFields alone with that for cisplatin alone).
The cytotoxic effect was studied. Treated cells were counted using a flow cytometer, and cytotoxic effect was calculated relative to control cells.
Treated cells were harvested, re-plated, and grown for an additional 7-14 days. Colonies were stained (0.5% crystal violet solution), counted, and clonogenic effect was calculated relative to control. Overall effect was calculated by multiplying the cytotoxic and clonogenic effects.
Cells were seeded on coverslip (22 mm diameter; 20×10^3 cells/coverslip for A2780 and A2780cis; 40×10^3 cells/coverslip for OVCAR-3). After overnight incubation, the coverslips were transferred into in vitro dishes containing 2 ml of media. TTFields at a frequency of 200 kHz (and intensity of 1 V/cm RMS) were applied to the cells for 72 hr using the INOVITRO system (Novocure, Haifa, Israel).
For efficacy outcomes (cell count, overall effect, and apoptosis), various concentrations of carboplatin (MCE MedChemExpress, HY-17393), olaparib (Cayman Chemical, 10621), or niraparib (Cayman Chemical, 20842) were applied, with or without TTFields.
Cell count was examined following treatment using Cytek Northern Lights flow cytometer (Cytek Biosciences, USA).
Treated cells were harvested, re-plated in 6-well plates (500 cells/well for A2780 and A2780cis; 1000 for cells/well OVCAR-3), and grown for 7 (A2780 and A2780cis) or 21 (OVCAR-3) days. Colonies were stained with 0.5% crystal violet, quantified with ImageJ, and expressed as percentages relative to control. Overall effect was calculated by multiplying colony formation with the corresponding cell count.
The surviving fraction predicted for an additive effect between TTFields and drug was calculated per the various drug concentrations by multiplying the actual measured surviving fractions for the individual treatments one by the other (SFcalculated additive=SFTTFields×SFdrug; SF are expressed as probability). Based on the calculated values, a trendline was determined. Additivity, synergy, or antagonism was defined when the calculated additive trendline overlapped, was above, or was below the actual measured line for TTFields+drug, respectively.
For quantifying the magnitude of TTFields-drug interaction, interaction index (Ii) values were calculated by the Bliss independence method using mortality values (Mx=1−SFx). Per the various drug concentrations, mortality predicted for an additive effect between TTFields and drug (Mcalculated additive=MTTFields+Mdrug−MTTFields×Mdrug) was divided by the actual measured mortality for TTFields+drug.

[4] = test system: orthotopic ID8-fLuc (HRP) ovarian cancer tumors; assay: Overall survival of ovarian cancer bearing mice; format: in vivo
Experimental: as §3
Seven days post inoculation, treatment was initiated. Mice were divided into four groups receiving either, sham-heat and vehicle (n=8), sham-heat and olaparib (n=8), TTFields and vehicle (n=7) or TTFields and olaparib (n=11). TTFields treatment (200 kHz) was administered continuously using the in vivo system (Novocure, Israel) by applying electrode arrays to the shaven abdomen of the mice as previously described. Sham-heat used analogous non-therapeutic arrays. Olaparib (MedKoo Biosciences, USA) was dissolved in a vehicle of 10% DMSO, 50% PEG300 and 40% DPBS and administered at a concentration of 50 mg/kg/day through daily oral gavage. Overall, therapeutic interventions lasted for four weeks, given in four cycles of five consecutive treatment days, followed by two days without treatment.
Mice were followed up and weighed daily once ascites development started as indicated by the appearance of abdominal distention. Mice were sacrificed when their body weight reached ≥32 grams as a surrogate endpoint for survival.

O=C(c1cc(Cc2n[nH]c(=O)c3ccccc23)ccc1F)N1CCN(C(=O)C2CC2)CC1 [olaparib]
effect of TTFields on the apoptotic effect / apoptotic cell fraction (A2780cis cells [1]): elevation
tumor volumes lower compared to controls and to olaparib only treated mice ([2]; TTFields (200 kHz) plus olaparib 50 mg/kg/day oral gavage, after 4 weeks, p=0.0183 vs controls, p=0.0066 vs olaparib only): about 80%
tumor growth relative to olaparib alone and to control, TTFields and olaparib together ([2]; TTFields plus olaparib 50 mg/kg/day): significant reduction
effect of TTFields on the apoptotic effect / apoptotic cell fraction (A2780 cells): enhanced; also recorded: elevation
effect of TTFields on the drug-induced overall effect (cell count x colony formation) (A2780cis cells [3]; TTFields plus drug vs drug alone): significantly augmented
effect of TTFields on the drug-induced effect, cell count (A2780cis cells [3]; TTFields plus drug vs drug alone, p<0.0001): significantly augmented
sensitivity to drug (cell count dose response) (A2780cis cells [3]; drug alone, 72 h, compared among A2780, OVCAR-3, A2780cis): highest resistance
type of TTFields-drug interaction (measured vs calculated additive curve) (A2780cis cells [3]; platinum-resistant cells, TTFields 200 kHz, 1 V/cm RMS, 72 h): tendency to synergy
median overall survival, TTFields plus olaparib ([4]; TTFields (200 kHz) plus olaparib 50 mg/kg/day, control 62 days): 70 days
median overall survival, monotherapy ([4]; monotherapy, control 62 days): 64.5 days
survival compared to control mice, monotherapy ([4]; olaparib only, p=0.0401): survival benefit
survival, TTFields plus olaparib compared to control and monotherapies ([4]; p=0.0003 vs control, p=0.0003 vs olaparib, p=0.0130 vs TTFields): significantly prolonged

— US20250108213A1, “COMPOSITIONS AND METHODS FOR ENHANCING THE EFFECT OF PLATINUM-BASED SYSTEMIC THERAPY” (NOVOCURE GMBH, priority 2023, published 2025)
